Several values for one entry are separate records, joined by “and”; a condition that tells them apart may be missing. Identical values can stand only once. Inconclusive results and toxic doses are left out. Rule for the calls: active = survival T/C of 150% or more; inactive = T/C below 125% in these data.
Test system: P388 leukemia ip, CD2F1 mice, survival T/C
Experiment: NCI In Vivo Anticancer Drug Screen. Data for tumor model P388 Leukemia (intraperitoneal) in CD2F1 (CDF1) mice
Details: endpoint: median survival time, higher = longer survival
Procedure, shortened: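 Mice carrying the transplanted tumor received test compound or vehicle. Survival was recorded in each group, and the value is the treated-group measurement divided by that of the vehicle-treated control group.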

[1] = dose: 100.0 mg/kg/injection, schedule: Q04DX002 (ip), vehicle: saline with Tween-80
[2] = dose: 200.0 mg/kg/injection, schedule: Q04DX002 (ip), vehicle: saline with Tween-80
[3] = dose: 400.0 mg/kg/injection, schedule: Q04DX002 (ip), vehicle: saline with Tween-80
[4] = dose: 50.0 mg/kg/injection, schedule: Q01DX009 (ip), vehicle: saline with Tween-80
[5] = dose: 100.0 mg/kg/injection, schedule: Q01DX009 (ip), vehicle: saline with Tween-80
[6] = dose: 50.0 mg/kg/injection, schedule: Q01DX005 (ip), vehicle: saline with Tween-80
[7] = dose: 100.0 mg/kg/injection, schedule: Q01DX005 (ip), vehicle: saline with Tween-80
[8] = dose: 200.0 mg/kg/injection, schedule: Q01DX005 (ip), vehicle: saline with Tween-80
[9] = dose: 200.0 mg/kg/injection, schedule: Q01DX009 (ip), vehicle: saline with Tween-80
[10] = dose: 60.0 mg/kg/injection, schedule: Q01DX005 (ip), vehicle: saline with Tween-80
[11] = dose: 120.0 mg/kg/injection, schedule: Q01DX005 (ip), vehicle: saline with Tween-80
[12] = dose: 240.0 mg/kg/injection, schedule: Q01DX005 (ip), vehicle: saline with Tween-80
[13] = dose: 6.25 mg/kg/injection, schedule: Q01DX005 (ip), vehicle: saline with Tween-80
[14] = dose: 12.5 mg/kg/injection, schedule: Q01DX005 (ip), vehicle: saline with Tween-80
[15] = dose: 25.0 mg/kg/injection, schedule: Q01DX005 (ip), vehicle: saline with Tween-80
[16] = dose: 50.0 mg/kg/injection, schedule: Q01DX005 (ip), vehicle: Klucel (hydroxypropylcellulose) (HPC)
[17] = dose: 100.0 mg/kg/injection, schedule: Q01DX005 (ip), vehicle: Klucel (hydroxypropylcellulose) (HPC)

Measured: T/C

OCCn1nc2c(c1-c1ccncc1)CCCc1ccccc1-2
inactive: [1] 97 % of control | [2] 94 % of control | [3] 94 % of control

CCP(C)(=O)c1ccccc1 (stereo not drawn)
inactive: [1] 96 % of control | [2] 97 % of control | [3] 100 % of control

O=C(O)C(O)C1CCCCC1 (stereo not drawn)
inactive: [4] 104 % of control | [5] 92 % of control

O=C(CN(Cc1ccccc1)Cc1ccccc1)C(O)C1OC(c2ccccc2)OCC1O (stereo not drawn)
inactive: [6] 91 % of control | [7] 88 % of control | [8] 89 % of control

OC1(c2ccccc2)CCN(c2c3ccccc3nc3ccccc23)CC1
inactive: dose: 100.0 mg/kg/injection, schedule: Q04DX002 (ip), vehicle: Klucel (hydroxypropylcellulose) (HPC) 118 % of control | dose: 200.0 mg/kg/injection, schedule: Q04DX002 (ip), vehicle: Klucel (hydroxypropylcellulose) (HPC) 119 % of control

O=C1NC(=O)C2=C1CCC2
inactive: dose: 3.13 mg/kg/injection, schedule: Q01DX009 (ip), vehicle: distilled water + Tween-80 98 % of control | dose: 6.25 mg/kg/injection, schedule: Q01DX009 (ip), vehicle: distilled water + Tween-80 104 % of control | dose: 12.5 mg/kg/injection, schedule: Q01DX009 (ip), vehicle: distilled water + Tween-80 114 % of control

CC1=Nc2ccc([N+](=O)[O-])cc2N=C(C)C1
inactive: [4] 101 % of control | [5] 98 % of control | dose: 100.0 mg/kg/injection, schedule: Q04DX002 (ip), vehicle: saline 101 % of control | [9] 90 % of control | dose: 200.0 mg/kg/injection, schedule: Q04DX002 (ip), vehicle: saline 101 % of control | dose: 400.0 mg/kg/injection, schedule: Q04DX002 (ip), vehicle: saline 105 % of control

Cc1cc([N+](=O)[O-])cc(C)c1OC(=O)Nc1c(Cl)cccc1Cl
inactive: dose: 30.0 mg/kg/injection, schedule: Q01DX005 (ip), vehicle: saline with Tween-80 101 % of control | [10] 100 % of control and 95 % of control | [11] 99 % of control and 100 % of control | [12] 94 % of control

c1ccc(-c2nc3n(n2)CCC(c2ccccc2)S3)cc1 (stereo not drawn)
inactive: [10] 92 % of control | [11] 89 % of control | [12] 87 % of control

CN(C)c1ccc(C(Cl)[O][Sn]([Cl])([c]2ccccc2)[c]2ccccc2)cc1.[CH3][Sn]([CH3])([Cl])[Cl] (stereo not drawn)
inactive: dose: 1.56 mg/kg/injection, schedule: Q01DX005 (ip), vehicle: saline with Tween-80 112 % of control | dose: 3.12 mg/kg/injection, schedule: Q01DX005 (ip), vehicle: saline with Tween-80 113 % of control and 119 % of control | [13] 109 % of control

CN1CCN(c2ccccc2N)CC1
inactive: dose: 5.0 mg/kg/injection, schedule: Q01DX009 (ip), vehicle: saline with Tween-80 104 % of control | dose: 10.0 mg/kg/injection, schedule: Q01DX009 (ip), vehicle: saline with Tween-80 100 % of control | dose: 20.0 mg/kg/injection, schedule: Q01DX009 (ip), vehicle: saline with Tween-80 95 % of control

O=S1(=O)NC2CCC3NS(=O)(=O)NC4CCC(N1)N4S(=O)(=O)N23 (stereo not drawn)
inactive: dose: 50.0 mg/kg/injection, schedule: Q01DX005 (ip), vehicle: distilled water + alcohol 101 % of control | dose: 100.0 mg/kg/injection, schedule: Q01DX005 (ip), vehicle: distilled water + alcohol 109 % of control | dose: 200.0 mg/kg/injection, schedule: Q01DX005 (ip), vehicle: distilled water + alcohol 105 % of control

CCOC(=O)C1C2(C(C)=O)C(C)=Nc3c(C#N)cnn3C12C(=O)OCC (stereo not drawn)
inactive: [13] 105 % of control | [14] 100 % of control | [15] 104 % of control | [7] 92 % of control | [8] 91 % of control

O=NN(C(=O)NCCCl)c1[nH]c(=O)ncc1Cl
inactive: dose: 25.0 mg/kg/injection, schedule: Q01DX005 (ip), vehicle: Klucel (hydroxypropylcellulose) (HPC) 97 % of control | [16] 100 % of control | [17] 108 % of control

CCCCN1C(=O)/C(=C/c2ccc(OC)cc2)SC1=S
inactive: [4] 100 % of control | [5] 94 % of control | [9] 90 % of control

COP(=S)(OC)Oc1cc(Cl)c(Cl)cc1Cl
inactive: dose: 50.0 mg/kg/injection, schedule: Q04DX003 (ip), vehicle: saline 100 % of control | dose: 100.0 mg/kg/injection, schedule: Q04DX003 (ip), vehicle: saline 102 % of control | dose: 200.0 mg/kg/injection, schedule: Q04DX003 (ip), vehicle: saline 103 % of control | dose: 400.0 mg/kg/injection, schedule: Q04DX003 (ip), vehicle: saline 102 % of control

COc1c(CBr)c(CBr)c(OC)c2c1C(=O)c1ccccc1C2=O
inactive: [14] 100 % of control | [15] 99 % of control | [6] 100 % of control and 112 % of control | [7] 95 % of control

c1ccc2c(-c3ccc(N4CCOCC4)cc3)c3ccc4ccccc4c3cc2c1
inactive: [16] 91 % of control | [17] 92 % of control | dose: 200.0 mg/kg/injection, schedule: Q01DX005 (ip), vehicle: Klucel (hydroxypropylcellulose) (HPC) 99 % of control

Cc1ccc(S(=O)(=O)NC(=O)C#CCOC2CCCCO2)cc1 (stereo not drawn)
inactive: [6] 103 % of control and 122 % of control | [7] 111 % of control and 112 % of control | [8] 112 % of control and 123 % of control

Source: PubChem BioAssay AID330 (DTP/NCI, 2004)
